Square brackets hold non-standard residues; d marks the D form. Peptide text beside a SMILES is read from it. * marks the point of attachment. Acetyl(9-fluorenyl) = O=C(CC1c2ccccc2-c2ccccc21)*; Anthracene1carbonyl = O=C(c1cccc2cc3ccccc3cc12)*; 2Nal = N[C@@H](Cc1ccc2ccccc2c1)C(=O)O; Gly(cPent) = N[C@H](C(=O)O)C1CCCC1; Ala(cPr) = N[C@@H](CC1CC1)C(=O)O; hPhe = N[C@@H](CCc1ccccc1)C(=O)O; Gly(cBu) = N[C@H](C(=O)O)C1CCC1; Aad = N[C@@H](CCCC(=O)O)C(=O)O; Aib = CC(C)(N)C(=O)O; Dha = C=C(N)C(=O)O
Assays:
MBP-16E6 [1] = biological target: T1, MBP-16E6 (Human papillomavirus 16, UniProt P03126, C104S/C118S/C147S/C87S); conditions: for decrease in binding by change of terminal group: relative to fluorene-modified N1 / parent modification; for Ratio to wild-type: N-terminal modified peptides, KD of WT divided by KD
MBP-16E6 [2] = biological target: T1, MBP-16E6; test: biochemical
[3] = KD in nM, N-terminal modified peptides, competition mode, N = 2 or 3, SEM of curve fitting
[4] = competition KD, BLI competition, values in text

T1 sequence (P03126 whole entry C104S/C118S/C147S/C87S, looked up): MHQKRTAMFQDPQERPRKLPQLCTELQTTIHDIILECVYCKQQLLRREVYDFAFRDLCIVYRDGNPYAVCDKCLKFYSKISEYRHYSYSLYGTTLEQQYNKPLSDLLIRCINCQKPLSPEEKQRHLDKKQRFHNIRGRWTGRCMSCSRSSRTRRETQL

Structure (SMILES)	Kd (MBP-16E6 [2]; [3])	Ratio to wild-type (MBP-16E6 [1])	other results
CC[C@H](C)[C@H](NC(=O)CC1c2ccccc2-c2ccccc21)C(=O)N1CCC[C@H]1C(=O)N[C@@H](CCC(=O)O)C(=O)N[C@@H](CO)C(=O)N[C@@H](C)C(=O)N[C@@H](CCC(=O)O)C(=O)N[C@@H](CC(C)C)C(=O)N[C@H](C(=O)N[C@@H](C)C(=O)N[C@@H](CCC(N)=O)C(=O)N[C@@H](CCC(=O)O)C(=O)N[C@@H](C)C(=O)N[C@@H](C)C(=O)NCC(=O)N[C@@H](CCC(=O)O)C(=O)N[C@@H](CCC(=O)O)C(=O)N[C@@H](CCCNC(=N)N)C(=O)N[C@@H](CCCNC(=N)N)C(=O)N[C@@H](C)C(=O)N[C@@H](C)C(=O)N[C@@H](CCCCNC(=O)c1cccc2cc3ccccc3cc12)C(N)=O)[C@@H](C)O [6′-3L3A] ({Acetyl(9-fluorenyl)}-IPESAELTAQEAAGEERRAAK(Anthracene1carbonyl)-NH2)	–	–	KD, nM (MBP-16E6 [1]; TABLE 2B, BLI competition): n.b.
C=C(NC(=O)[C@H](C)NC(=O)[C@H](C)NC(=O)[C@H](CCC(=O)O)NC(=O)[C@H](CCC(N)=O)NC(=O)[C@H](C)NC(=O)[C@@H](NC(=O)[C@H](CC(C)C)NC(=O)[C@H](CCC(=O)O)NC(=O)[C@H](C)NC(=O)[C@H](CO)NC(=O)[C@H](CCC(N)=O)NC(=O)[C@@H]1CCCN1C(=O)[C@@H](NC(=O)CC1c2ccccc2-c2ccccc21)[C@@H](C)CC)[C@@H](C)O)C(=O)N[C@@H](CCCNC(=N)N)C(=O)N[C@@H](CCCNC(=N)N)C(=O)N[C@@H](CCCCN)C(=O)N[C@@H](CCCCN)C(=O)N[C@@H](CCCCNC(=O)c1cccc2cc3ccccc3cc12)C(N)=O [Peptide 13-3L3A] ({Acetyl(9-fluorenyl)}-IPQSAELTAQEAA[Dha]RRKKK(Anthracene1carbonyl)-NH2)	–	–	KD in nM (MBP-16E6 [1]; TABLE 2C, BLI competition): n.b.; Apparent Ki in nM (MBP-16E6 [1]; TABLE 2E, competition with immobilized 1-Biotin following 30 min incubation with 16E6): n.b.
CC[C@H](C)[C@H](NC(=O)C1CCc2ccccc21)C(=O)N1CCC[C@H]1C(=O)N[C@@H](CCC(=O)O)C(=O)N[C@@H](CO)C(=O)N[C@@H](CO)C(=O)N[C@@H](CCC(=O)O)C(=O)N[C@@H](CC(C)C)C(=O)N[C@H](C(=O)N[C@@H](CC(C)C)C(=O)N[C@@H](CCC(N)=O)C(=O)N[C@@H](CCC(=O)O)C(=O)N[C@@H](CC(C)C)C(=O)N[C@@H](CC(C)C)C(=O)NCC(=O)N[C@@H](CCC(=O)O)C(=O)N[C@@H](CCC(=O)O)C(=O)N[C@@H](CCCNC(=N)N)C(=O)N[C@@H](CCCNC(=N)N)C(N)=O)[C@@H](C)O (stereo partly shown) [Peptide N3]	–	–	decrease in binding by change of terminal group (MBP-16E6 [1]): ~ 42 fold
CC[C@H](C)[C@H](NC(=O)c1c(O)cccc1O)C(=O)N1CCC[C@H]1C(=O)N[C@@H](CCC(=O)O)C(=O)N[C@@H](CO)C(=O)N[C@@H](CO)C(=O)N[C@@H](CCC(=O)O)C(=O)N[C@@H](CC(C)C)C(=O)N[C@H](C(=O)N[C@@H](CC(C)C)C(=O)N[C@@H](CCC(N)=O)C(=O)N[C@@H](CCC(=O)O)C(=O)N[C@@H](CC(C)C)C(=O)N[C@@H](CC(C)C)C(=O)NCC(=O)N[C@@H](CCC(=O)O)C(=O)N[C@@H](CCC(=O)O)C(=O)N[C@@H](CCCNC(=N)N)C(=O)N[C@@H](CCCNC(=N)N)C(N)=O)[C@@H](C)O [Peptide N15]	767 ± 295 nM	3.1	–
CC[C@H](C)[C@H](NC(=O)c1c(F)c(F)c(F)c(F)c1F)C(=O)N1CCC[C@H]1C(=O)N[C@@H](CCC(=O)O)C(=O)N[C@@H](CO)C(=O)N[C@@H](CO)C(=O)N[C@@H](CCC(=O)O)C(=O)N[C@@H](CC(C)C)C(=O)N[C@H](C(=O)N[C@@H](CC(C)C)C(=O)N[C@@H](CCC(N)=O)C(=O)N[C@@H](CCC(=O)O)C(=O)N[C@@H](CC(C)C)C(=O)N[C@@H](CC(C)C)C(=O)NCC(=O)N[C@@H](CCC(=O)O)C(=O)N[C@@H](CCC(=O)O)C(=O)N[C@@H](CCCNC(=N)N)C(=O)N[C@@H](CCCNC(=N)N)C(N)=O)[C@@H](C)O [Peptide N16]	228 ± 74 nM	10.7	–
CC[C@H](C)[C@H](NC(=O)c1ccc2cc(O)ccc2c1)C(=O)N1CCC[C@H]1C(=O)N[C@@H](CCC(=O)O)C(=O)N[C@@H](CO)C(=O)N[C@@H](CO)C(=O)N[C@@H](CCC(=O)O)C(=O)N[C@@H](CC(C)C)C(=O)N[C@H](C(=O)N[C@@H](CC(C)C)C(=O)N[C@@H](CCC(N)=O)C(=O)N[C@@H](CCC(=O)O)C(=O)N[C@@H](CC(C)C)C(=O)N[C@@H](CC(C)C)C(=O)NCC(=O)N[C@@H](CCC(=O)O)C(=O)N[C@@H](CCC(=O)O)C(=O)N[C@@H](CCCNC(=N)N)C(=O)N[C@@H](CCCNC(=N)N)C(N)=O)[C@@H](C)O [Peptide N17]	159 ± 47 nM	15.3	–
CC[C@H](C)[C@H](NC(=O)CCCc1ccc2ccc3cccc4ccc1c2c34)C(=O)N1CCC[C@H]1C(=O)N[C@@H](CCC(=O)O)C(=O)N[C@@H](CO)C(=O)N[C@@H](CO)C(=O)N[C@@H](CCC(=O)O)C(=O)N[C@@H](CC(C)C)C(=O)N[C@H](C(=O)N[C@@H](CC(C)C)C(=O)N[C@@H](CCC(N)=O)C(=O)N[C@@H](CCC(=O)O)C(=O)N[C@@H](CC(C)C)C(=O)N[C@@H](CC(C)C)C(=O)NCC(=O)N[C@@H](CCC(=O)O)C(=O)N[C@@H](CCC(=O)O)C(=O)N[C@@H](CCCNC(=N)N)C(=O)N[C@@H](CCCNC(=N)N)C(N)=O)[C@@H](C)O [Peptide N18]	106 ± 27 nM	23	–
CC[C@H](C)[C@H](NC(=O)c1ccc2c3c(cccc13)CC2)C(=O)N1CCC[C@H]1C(=O)N[C@@H](CCC(=O)O)C(=O)N[C@@H](CO)C(=O)N[C@@H](CO)C(=O)N[C@@H](CCC(=O)O)C(=O)N[C@@H](CC(C)C)C(=O)N[C@H](C(=O)N[C@@H](CC(C)C)C(=O)N[C@@H](CCC(N)=O)C(=O)N[C@@H](CCC(=O)O)C(=O)N[C@@H](CC(C)C)C(=O)N[C@@H](CC(C)C)C(=O)NCC(=O)N[C@@H](CCC(=O)O)C(=O)N[C@@H](CCC(=O)O)C(=O)N[C@@H](CCCNC(=N)N)C(=O)N[C@@H](CCCNC(=N)N)C(N)=O)[C@@H](C)O [Peptide N19]	55 ± 12 nM	44.4	Kd (MBP-16E6 [2]; [4]): < 70 nM
CC[C@H](C)[C@H](NC(=O)Cc1cc(=O)oc2cc(OC)ccc12)C(=O)N1CCC[C@H]1C(=O)N[C@@H](CCC(=O)O)C(=O)N[C@@H](CO)C(=O)N[C@@H](CO)C(=O)N[C@@H](CCC(=O)O)C(=O)N[C@@H](CC(C)C)C(=O)N[C@H](C(=O)N[C@@H](CC(C)C)C(=O)N[C@@H](CCC(N)=O)C(=O)N[C@@H](CCC(=O)O)C(=O)N[C@@H](CC(C)C)C(=O)N[C@@H](CC(C)C)C(=O)NCC(=O)N[C@@H](CCC(=O)O)C(=O)N[C@@H](CCC(=O)O)C(=O)N[C@@H](CCCNC(=N)N)C(=O)N[C@@H](CCCNC(=N)N)C(N)=O)[C@@H](C)O [Peptide N20]	213 ± 47 nM	11.4	–
CC[C@H](C)[C@H](NC(=O)[C@@H](N)Cc1ccc(-c2ccccc2)cc1)C(=O)N1CCC[C@H]1C(=O)N[C@@H](CCC(=O)O)C(=O)N[C@@H](CO)C(=O)N[C@@H](CO)C(=O)N[C@@H](CCC(=O)O)C(=O)N[C@@H](CC(C)C)C(=O)N[C@H](C(=O)N[C@@H](CC(C)C)C(=O)N[C@@H](CCC(N)=O)C(=O)N[C@@H](CCC(=O)O)C(=O)N[C@@H](CC(C)C)C(=O)N[C@@H](CC(C)C)C(=O)NCC(=O)N[C@@H](CCC(=O)O)C(=O)N[C@@H](CCC(=O)O)C(=O)N[C@@H](CCCNC(=N)N)C(=O)N[C@@H](CCCNC(=N)N)C(N)=O)[C@@H](C)O [Peptide N21]	1410 ± 757 nM	1.7	Kd (MBP-16E6 [2]; [4]): 1410 nM; decrease in binding by change of terminal group (MBP-16E6 [1]): ~ 27 fold
CC[C@H](C)[C@H](NC(=O)[C@@H](N)CC1CCCCC1)C(=O)N1CCC[C@H]1C(=O)N[C@@H](CCC(=O)O)C(=O)N[C@@H](CO)C(=O)N[C@@H](CO)C(=O)N[C@@H](CCC(=O)O)C(=O)N[C@@H](CC(C)C)C(=O)N[C@H](C(=O)N[C@@H](CC(C)C)C(=O)N[C@@H](CCC(N)=O)C(=O)N[C@@H](CCC(=O)O)C(=O)N[C@@H](CC(C)C)C(=O)N[C@@H](CC(C)C)C(=O)NCC(=O)N[C@@H](CCC(=O)O)C(=O)N[C@@H](CCC(=O)O)C(=O)N[C@@H](CCCNC(=N)N)C(=O)N[C@@H](CCCNC(=N)N)C(N)=O)[C@@H](C)O [Peptide N22]	1660 ± 705 nM	1.4	–
CC[C@H](C)[C@H](NC(=O)CC1c2ccccc2-c2ccccc21)C(=O)N1CCC[C@H]1C(=O)N[C@@H](CCC(=O)O)C(=O)N[C@@H](CO)C(=O)N[C@@H](C)C(=O)N[C@@H](CCC(=O)O)C(=O)N[C@@H](CC(C)C)C(=O)N[C@H](C(=O)N[C@@H](CC(C)C)C(=O)N[C@@H](CCC(N)=O)C(=O)N[C@@H](CCC(=O)O)C(=O)N[C@@H](CC(C)C)C(=O)N[C@@H](CC(C)C)C(=O)NCC(=O)N[C@@H](CCC(=O)O)C(=O)N[C@@H](CCC(=O)O)C(=O)N[C@@H](CCCNC(=N)N)C(=O)N[C@@H](CCCNC(=N)N)C(=O)N[C@@H](C)C(=O)N[C@@H](C)C(=O)N[C@@H](CCCCNC(=O)c1cccc2cc3ccccc3cc12)C(N)=O)[C@@H](C)O [peptide 6′] ({Acetyl(9-fluorenyl)}-IPESAELTLQELLGEERRAAK(Anthracene1carbonyl)-NH2)	–	–	Kd (MBP-16E6 [2]; KD in nM, TABLE 2C, BLI competition): 1.4 ± 0.6 nM; Kd (MBP-16E6 [2]; KD, nM, TABLE 2B, BLI competition): 2.7 ± 1.2 nM; Kd (MBP-16E6 [2]; [4]): 2.7 nM
C=C(NC(=O)[C@H](CC1CC1)NC(=O)[C@H](CCc1ccccc1)NC(=O)[C@H](CCC(=O)O)NC(=O)C(C)(C)NC(=O)[C@H](CC1CC1)NC(=O)[C@@H](NC(=O)[C@H](Cc1ccc2ccccc2c1)NC(=O)[C@@H](N)CCCC(=O)O)C1CCC1)C(=O)N[C@@H](CCC(=O)O)C(=O)N[C@@H](CCC(=O)O)C(=O)N[C@@H](CCCNC(=N)N)C(N)=O [peptide 14] (H-[Aad][2Nal][Gly(cBu)][Ala(cPr)][Aib]E[hPhe][Ala(cPr)][Dha]EER-NH2)	–	–	lower binding affinity compared to peptide 18 (MBP-16E6 [1]; substitution Leu8Hof): 2 fold
C=C(NC(=O)[C@H](CC(C)C)NC(=O)[C@H](CC(C)C)NC(=O)[C@H](CCCC(=O)O)NC(=O)C(C)(C)NC(=O)[C@H](CC1CC1)NC(=O)[C@@H](NC(=O)[C@H](Cc1ccc2ccccc2c1)NC(=O)[C@@H](N)CCCC(=O)O)C1CCCC1)C(=O)N[C@@H](CCC(=O)O)C(=O)N[C@@H](CCC(=O)O)C(=O)N[C@@H](CCCNC(=N)N)C(N)=O [peptide 23] (H-[Aad][2Nal][Gly(cPent)][Ala(cPr)][Aib][Aad]LL[Dha]EER-NH2)	–	–	improved affinity compared to parent reactide ELT-DHA9G (MBP-16E6 [1]): 50 fold

Source: patent US20260297131A1, “COMPOSITIONS AND METHODS FOR PEPTIDE-BASED MODULATORS OF HUMAN PAPILLOMAVIRUS ONCOPROTEIN E6” (priority 2023, published 2026)
